From article PMC12435690, “KYLO-0603, a novel liver-targeting, thyroid hormone receptor-β agonist for the inhibition of MASH progression” (PLOS One, 2025)

Key:
in vitro [1] = details: Sprague-Dawley, rat, plasma
Method: (§1) We evaluated the metabolic stability of Kylo-0603 in the plasma of CD-1 mice, Sprague–Dawley (SD) rats, beagle dogs, cynomolgus monkeys, and humans. The plasma from the five species was mixed with Kylo-0603 (2 μM) and incubated at 37°C in a thermostatic water tank. The plasma concentrations of Kylo-0603 were monitored via LC-MS/MS at 0, 10, 30, 60, and 120 min.

[2] = Metabolic stability in plasma (humans); details: human
Method: as §1

[3] = Metabolic stability in plasma (CD-1 mice)
Method: as §1

[4] = 28-day repeated-dose toxicity study in cynomolgus monkeys; type: in vivo
Method: To evaluate the preclinical safety profile of Kylo-0603, a novel liver-targeted thyroid hormone receptor β (TRβ) agonist with therapeutic potential, systematic toxicological assessments were conducted in both non-human primates (cynomolgus monkeys) and rodents (Sprague-Dawley rats). […] The no-observed-adverse-effect level (NOAEL) was determined to be 1.5 mg/kg/day. Collectively, these independent toxicological investigations substantiate Kylo-0603’s favorable safety, providing rigorous preclinical support for clinical advancement.

in vitro [5] = details: beagle, dog, plasma
Method: as §1

[6] = system: MASH mouse models (F2 ~ 3); test: SHG/TPEF microscopy of liver fibrosis and steatosis in MASH mouse models; type: in vivo, C57BL/6J mice; details: for SHG fibrosis percentage / percentage of steatosis: 8 weeks; for SHG fibrosis percentage: control 4.36%; for percentage of steatosis: control 21.66%
Method: Scanning was conducted on a Genesis® machine, a stain-free TPE/SHG microscopic imaging device manufactured in-house by HistoIndex®, Singapore. The region of interest (ROI) is systematically partitioned into uniformly sized, termed “blocks,” each measuring of 200 μm × 200 μm. These blocks were sequentially imaged individually and in sequence in raster scan mode utilizing a 20x objective lens. Each block has a resolution of 512 × 512 pixels, or 0.4 μm per pixel. Software developed by HistoIndex and Chipmap for image analysis identifies the different lobular regions, the central vein, the confluent region, and the perisinus region. Fibrosis and steatosis in these regions were subsequently measured and quantified in the SHG and TPE images.
As a fundamental component of clinical prognosis in MASH, a precise evaluation of hepatic fibrosis is very crucial. Artificial intelligence-assisted second harmonic generation/two-photon excitation fluorescence (SHG/TPEF) microscopy technique has been introduced because the existing scoring systems are insufficient for capturing the process of hepatic fibrosis regression. This offers a consistent and very precise way to evaluate the pathological characteristics of MASH, especially the serial measurement of collagen fibers and hepatic fibrosis. In this study, we employed second harmonic generation/two-photon excited fluorescence (SHG/TPEF) microscopy integrated with digital image analysis to evaluate liver tissue sections across a larger tissue area from MASH mouse models (F2–F3). This approach enabled systematic analysis of the effects of Kylo-0603 on arresting the progression of hepatic steatosis and fibrosis of liver tissue.
Through quantitative analysis of SHG/TPEF imaging datasets, we conducted a detailed assessment of the specific impacts of varying Kylo-0603 dosages (0.1 mg/kg, 0.3 mg/kg, 1 mg/kg, 3 mg/kg, and 10 mg/kg) on fibrogenesis and steatosis in F2–F3 MASH mouse models. The key findings are systematically summarized as follows: […]

[7] = Metabolic stability in plasma (beagle dogs); details: dog
Method: as §1

in vitro [8] = details: cynomolgus monkey, plasma
Method: as §1

in vitro [9] = details: CD-1, mouse, plasma
Method: as §1

[10] = Metabolic stability in plasma (cynomolgus monkeys); details: cynomolgus monkey
Method: as §1

HFD-induced obese mice = test: HFD-induced obese mice, oral once daily treatment; details: for fat content reduction / increase in the percentage of lean mass / reduction in Chol level / reduction in LDL-C level: vs HFD control; for Ballooning score / Fibrosis Score / Lobular inflammation score / NAFLD activity score / Steatosis score: DIO mice, HFD
Method: Experiments were performed on 112 (n = 16/group) male C57BL/6J mice (5 weeks). After 3 days of acclimatization, the animals were randomly divided according to body weight into a control group (Chow Diet) and a HFD group (HFD, 60% calories as fat, Cat# D12492, Research Diet, Jiangsu Xietong Pharmaceutical Bioengineering Co., Ltd.). The mice were fed with the corresponding diets for 16 weeks (with bedding shavings and a high-fat diet changed twice a week), during which the bedding shavings and high-fat diet (HFD) were refreshed twice weekly (see S1 Fig). Body weights were recorded on a weekly basis throughout this period. […] A separate cohort of mice, fed a standard chow diet, served as normal controls and received daily oral gavages of the vehicle. At the end of the experiment, the mice were fasted for 6 hours and then sacrificed. The animals were euthanized by CO2 inhalation and blood were collected along with liver and heart tissues. Collected blood samples were centrifuged to obtain the serum for the detection of cholesterol, triglyceride, and low-density lipoprotein cholesterol. The heart and liver tissues were weighed and photographed. The livers and hearts of the mice were rapidly removed and washed with cold saline. Half of the left lobe of liver was fixed in 4% neutral paraformaldehyde, and the remaining part of livers and hearts were snap-frozen and stored at −80°C for further analysis. The concentrations of serum lipids and liver enzymes from orbital or cardiac blood were determined by measuring triglycerides (TG), cholesterol (Chol), Low-density lipoprotein cholesterol (LDL-C), alanine transaminase (ALT), and aspartate transaminase (AST) levels using a Hitachi 7020 automated hematology laboratory and a Wako kit.
The dewaxed tissue slides were incubated in the alcohol-free hematoxylin staining solution for a period of 3–5 minutes, followed by thorough rinsing with running tap water. The slides were then subjected to differentiated and bluing for several seconds, after which they underwent sequential dehydration through a series of ethanol solutions with increasing concentrations (50%, 70%, 85%, and 95%). They were then subjected to eosin staining for a period of 5–10 minutes. The slides were then dehydrated sequentially with 95%, 100%, and 100% ethanol before being cleared with xylene. Finally, the slides were sealed with neutral gum, dried, and imaged.
The frozen sections were immersed in 60% isopropyl alcohol for 3–5 minutes, followed by immersion in Oil Red staining solution for 3–5 minutes. The samples were then washed with pure water. Following a wash with pure water, the nuclei were restained with hematoxylin, after which the sections were sealed with 50% glycerol, dried and photographed for imaging.
The dewaxed slides were rinsed in running water, stained with Sirius Red for 8–10 minutes, washed slightly in anhydrous ethanol, dehydrated, made transparent by gradient ethanol and xylene, and finally sealed with neutral gum, dried and photographed for imaging.

## CC(=O)N[C@H]1[C@H](OCCCCCCNC(=O)CCOCC(COCCC(=O)NCCCCCCO[C@@H]2O[C@H](CO)[C@H](O)[C@H](O)[C@H]2NC(C)=O)(COCCC(=O)NCCCCCCO[C@@H]2O[C@H](CO)[C@H](O)[C@H](O)[C@H]2NC(C)=O)NC(=O)CCCCCNC(=O)COc2cc(C)c(Cc3ccc(O)c(C(C)C)c3)c(C)c2)O[C@H](CO)[C@H](O)[C@@H]1O [Kylo-0603]
In vitro [1]
  half-life at 2 μM: > 6.21 h
[2]
  plasma stability: stable
[3]
  plasma stability: stable
[4]; cynomolgus monkeys
  perturbations of the hypothalamic-pituitary-thyroid (HPT) axis: no perturbations
[4]; oral 0.5, 1 and 5 mg/kg per day, 28 days, 56-day recovery
  macroscopic lesions or histopathological changes: no macroscopic lesions or histopathological changes
In vitro [5]
  half-life at 2 μM: 5.93 h
[6]; 0.1 mg/kg
  SHG fibrosis percentage: 2.92%
  percentage of steatosis: 5.07%
[6]; 0.3 mg/kg
  SHG fibrosis percentage: 2.12%
  percentage of steatosis: 4.39%
[6]; 1 mg/kg
  SHG fibrosis percentage: 2.16%
  percentage of steatosis: 4.19%
[6]; 3 mg/kg
  SHG fibrosis percentage: 2.03%
  percentage of steatosis: 2.22%
[6]; 10 mg/kg
  reduction of steatosis vs control group: 90%
  SHG fibrosis percentage: 1.86%
[7]
  plasma stability: unstable
In vitro [8]
  half-life at 2 μM: > 6.21 h
In vitro [9]
  half-life at 2 μM: > 6.21 h
[10]
  plasma stability: stable
HFD-induced obese mice; 0.1 mg/kg PO once daily, 10 weeks
  body weight reduction vs HFD control group: 0.8%
HFD-induced obese mice; 0.1 mg/kg, 8 weeks
  fat content reduction: 8.96%
  increase in the percentage of lean mass: 5.32%
  Ballooning score: 1.6 ± 0.5
  Fibrosis Score: 0.6 ± 0.5
  Lobular inflammation score: 1.0 ± 0.0
  NAFLD activity score: 5.0 ± 0.9
  Steatosis score: 2.4 ± 1.1
HFD-induced obese mice; 0.1 mg/kg, 10 weeks
  reduction in Chol level: 30.6%
  reduction in LDL-C level: 58.0%
HFD-induced obese mice; 0.3 mg/kg PO once daily, 10 weeks
  body weight reduction vs HFD control group: 4.8%
HFD-induced obese mice; 0.3 mg/kg, 8 weeks
  fat content reduction: 9.16%
  increase in the percentage of lean mass: 10.95%
  Ballooning score: 1.4 ± 0.5
  Fibrosis Score: 0.4 ± 0.5
  Lobular inflammation score: 1.3 ± 0.5
  NAFLD activity score: 4.6 ± 1.2
  Steatosis score: 2.0 ± 1.4
HFD-induced obese mice; 0.3 mg/kg, 10 weeks
  reduction in Chol level: 35.9%
  reduction in LDL-C level: 72.7%
HFD-induced obese mice; 1 mg/kg PO once daily, 10 weeks
  body weight reduction vs HFD control group: 3.8%
HFD-induced obese mice; 1 mg/kg, 8 weeks
  fat content reduction: 14.07%
  increase in the percentage of lean mass: 13.52%
  Ballooning score: 1.8 ± 0.5
  Fibrosis Score: 0.4 ± 0.5
  Lobular inflammation score: 1.1 ± 0.4
  NAFLD activity score: 4.4 ± 1.1
  Steatosis score: 1.5 ± 0.8
HFD-induced obese mice; 1 mg/kg, 10 weeks
  reduction in Chol level: 47.9%
  reduction in LDL-C level: 81.8%
HFD-induced obese mice; 3 mg/kg
  average reduction of triglyceride content in liver homogenates: up to 36.4%
HFD-induced obese mice; 3 mg/kg PO once daily, 10 weeks
  body weight reduction vs HFD control group: 13.1%
HFD-induced obese mice; 3 mg/kg, 2 weeks
  reduction in Chol level: 52.0%
  reduction in LDL-C level: 84.0%
HFD-induced obese mice; 3 mg/kg, 8 weeks
  fat content reduction: 26.15%
  increase in the percentage of lean mass: 21.94%
  Ballooning score: 1.1 ± 1.0
  Fibrosis Score: 0.4 ± 0.5
  Lobular inflammation score: 1.1 ± 0.4
  NAFLD activity score: 3.4 ± 2.1
  Steatosis score: 1.1 ± 1.0
HFD-induced obese mice; 3 mg/kg, 10 weeks
  reduction in Chol level: 53.9%
  reduction in LDL-C level: 79.7%
HFD-induced obese mice; 10 mg/kg PO once daily, 10 weeks
  body weight reduction vs HFD control group: 15.8%
HFD-induced obese mice; 10 mg/kg, 2 weeks
  reduction in Chol level: 64.5%
  reduction in LDL-C level: 85.8%
HFD-induced obese mice; 10 mg/kg, 8 weeks
  fat content reduction: 44.35%
  increase in the percentage of lean mass: 37.91%
  Ballooning score: 1.0 ± 0.9
  Fibrosis Score: 0.3 ± 0.5
  Lobular inflammation score: 1.0 ± 0.0
  NAFLD activity score: 3.2 ± 1.3
  Steatosis score: 1.2 ± 0.8
HFD-induced obese mice; 10 mg/kg, 10 weeks
  reduction in Chol level: 69.2%
  reduction in LDL-C level: 88.2%
HFD-induced obese mice; 0.1-10 mg/kg, 8 weeks
  body length: not affected
  bone density: not affected
HFD-induced obese mice; 2 and 10 weeks
  cholesterol content in liver homogenates: did not exert a notable influence
HFD-induced obese mice; all dose groups (0.1-10 mg/kg), 10 weeks
  liver weight: significantly decreased
HFD-induced obese mice; various doses (0.1-10 mg/kg), 10 weeks
  effect on heart weight: not significant
